Measurements reported in publication PMC7441158 (Nature Communications, 2020).

How the values were obtained:
[1] = Half-life of native and glycosylated GLP-1 isoforms in rats; conditions: anesthetized male Wistar rats, i.v. bolus 20 nmol/kg; for half-life t1/2 in circulation: n = 8 per group, total GLP-1 in plasma (assay against amidated C-terminus: intact 7–36 amide and metabolites), one-phase decay, linear model on ln-transformed data; for detectability in circulation after injection (in words): total GLP-1 assay, plasma sampled up to 60 min
Experimental: Male Wistar rats (≈250 g) were obtained from Janvier (Saint Berthevin Cedex, France) and housed in pairs under standard conditions with ad libitum access to chow and water. Rats were acclimatized for at least 1 week before the study. Studies were carried out on two occasions, matching on each occasion the number of rats in each group, while at the same time avoiding rats from the same cage receiving the same test solution. […] On the day of study, non-fasted rats were anesthetized by a subcutaneous injection with Hypnorm/Midazolam (0.3 ml per 100 g body weight) and placed on a heated operating table (37 °C). The abdominal cavity was opened by a midline incision and a plastic catheter was inserted in the portal vein. Blood was collected (∼300 µl per timepoint) through the catheter into ice cold EDTA-coated tubes that were immediately placed one ice. Samples were collected at timepoint −5, 0, 1, 2, 5, 10, 15, 25, 45, and 60 min. In between samples, ∼200 µL PBS were injected to flush the catheter and replace lost fluid. […] At end of study, rats were sacrificed by diaphragm perforation.
Only data points represented by n > 4 were included in the analysis. To test the difference in rate constant (k), a multiple linear model (lm) was fitted to the pooled data with glycoform set as interaction (lm, Concentration ∼ Timepoint * Glycoform).

[2] = intact GLP-1 (7–36 amide); cited from earlier work
neprilysin (NEP) [3] = biological target: T1, neprilysin (NEP) (Homo sapiens, UniProt P08473); test: In vitro degradation by neprilysin, MALDI-TOF timecourse assay; assay type: in vitro ADME; conditions: sialylated ST O-glycan structure, 15 µM peptide, 37 °C, pH 9.0, NEP 20 ng/μL (PYY), 150 pg/μL (GAL)
T1 construct: purchased R&D Systems
T1 sequence (P08473 whole entry, species assumed): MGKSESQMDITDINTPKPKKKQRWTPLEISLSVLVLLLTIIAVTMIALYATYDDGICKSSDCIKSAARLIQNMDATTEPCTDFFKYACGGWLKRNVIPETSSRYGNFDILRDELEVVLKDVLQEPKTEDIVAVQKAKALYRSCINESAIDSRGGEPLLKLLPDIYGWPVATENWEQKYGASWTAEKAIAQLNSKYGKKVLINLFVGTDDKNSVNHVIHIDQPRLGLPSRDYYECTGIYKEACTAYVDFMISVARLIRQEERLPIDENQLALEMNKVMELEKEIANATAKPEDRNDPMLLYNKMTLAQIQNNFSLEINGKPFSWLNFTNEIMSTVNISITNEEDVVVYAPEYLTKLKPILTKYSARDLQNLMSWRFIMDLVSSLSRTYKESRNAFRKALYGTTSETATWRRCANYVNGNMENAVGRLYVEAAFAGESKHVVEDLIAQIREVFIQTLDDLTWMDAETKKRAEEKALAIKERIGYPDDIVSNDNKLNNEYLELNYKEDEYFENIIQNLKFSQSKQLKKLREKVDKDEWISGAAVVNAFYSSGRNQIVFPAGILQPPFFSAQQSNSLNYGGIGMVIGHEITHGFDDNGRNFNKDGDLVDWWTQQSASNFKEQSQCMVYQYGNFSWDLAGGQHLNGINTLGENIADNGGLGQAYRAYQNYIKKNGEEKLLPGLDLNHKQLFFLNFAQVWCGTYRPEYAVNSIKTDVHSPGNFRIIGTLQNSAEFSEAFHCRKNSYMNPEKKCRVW
Experimental: Recombinant protease assays were performed in a MALDI-TOF timecourse assay. […] The amount of enzyme used was optimized to fully digest the non-glycosylated peptide hormone of interest within 1 h of incubation.
MALDI-TOF-MS was performed in linear positive mode on a Bruker Autoflex instrument (Bruker Daltonik GmbH, Bremen, Germany) by mixing the quenched aliquots with a saturated solution of α-Cyano-4-hydroxycinnamic acid in ACN/H2O/TFA (70:30:0.1) at a 1:1 ratio on a target steel plate.

VIP receptor 2 (VPAC2) = biological target: T2, VIP receptor 2 (VPAC2) (Homo sapiens, UniProt P41587); test: cAMP assay, COS-7 cells transiently expressing VPAC2; assay type: cell-based; conditions: for % receptor activation at 1µM agonist: VPAC2 + VIP, Suppl. fig 5a source data; for EC50: log(EC50) VPAC 2 + VIP, log10 of EC50, COS-7 cells, cAMP, Hill = 1, top constrained to 100%
T2 sequence (P41587 24-438): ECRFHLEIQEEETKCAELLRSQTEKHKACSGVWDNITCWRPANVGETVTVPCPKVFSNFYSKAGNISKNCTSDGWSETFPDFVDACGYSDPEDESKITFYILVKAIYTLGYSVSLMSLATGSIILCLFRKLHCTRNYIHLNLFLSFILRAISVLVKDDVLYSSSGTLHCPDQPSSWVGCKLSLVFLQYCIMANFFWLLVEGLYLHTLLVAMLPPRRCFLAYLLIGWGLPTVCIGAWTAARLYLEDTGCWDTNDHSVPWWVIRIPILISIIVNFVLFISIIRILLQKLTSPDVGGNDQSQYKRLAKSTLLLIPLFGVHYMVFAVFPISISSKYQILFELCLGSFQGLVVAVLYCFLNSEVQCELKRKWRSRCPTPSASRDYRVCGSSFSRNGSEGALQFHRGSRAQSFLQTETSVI

VIP receptor 1 (VPAC1) = biological target: T3, VIP receptor 1 (VPAC1) (Homo sapiens, UniProt P32241); test: cAMP assay, COS-7 cells transiently expressing VPAC1; assay type: cell-based; conditions: for EC50: log(EC50) VPAC1 + VIP, log10 of EC50, COS-7 cells, cAMP, Hill = 1, top constrained to 100%
T3 sequence (P32241 31-457): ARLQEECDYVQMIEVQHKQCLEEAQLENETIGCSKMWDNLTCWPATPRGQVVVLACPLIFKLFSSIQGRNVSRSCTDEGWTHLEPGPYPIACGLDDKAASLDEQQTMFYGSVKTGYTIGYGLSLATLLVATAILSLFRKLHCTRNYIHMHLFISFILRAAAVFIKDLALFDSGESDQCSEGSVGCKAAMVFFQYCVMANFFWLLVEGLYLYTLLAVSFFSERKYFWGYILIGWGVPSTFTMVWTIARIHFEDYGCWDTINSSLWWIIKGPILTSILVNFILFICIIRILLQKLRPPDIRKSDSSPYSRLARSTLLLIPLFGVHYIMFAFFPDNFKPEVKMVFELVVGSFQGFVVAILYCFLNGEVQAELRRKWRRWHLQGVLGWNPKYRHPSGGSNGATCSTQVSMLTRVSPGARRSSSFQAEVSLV

neprilysin (NEP) [4] = test: NEP (R&D Systems) in 50 mM Tris, 0.05% Brij-35, pH 9.0; conditions: 37 °C, up to 24 h
[5] = cited from earlier work
[6] = tested on: dipeptidyl peptidase IV (DPP-IV); test: DPP-IV (R&D Systems) in 50 mM Tris, pH 8.0; conditions: 37 °C, up to 24 h
[7] = independent experiment 1, duplicate determinations
[8] = independent experiment 2, duplicate determinations
[9] = independent experiment 3, duplicate determinations

**Q.** Which “half-life t1/2 in circulation” value [1] does the source give for `CC[C@H](C)[C@H](NC(=O)[C@H](Cc1ccccc1)NC(=O)[C@H](CCC(=O)O)NC(=O)[C@H](CCCCN)NC(=O)[C@H](C)NC(=O)[C@H](C)NC(=O)[C@H](CCC(N)=O)NC(=O)CNC(=O)[C@H](CCC(=O)O)NC(=O)[C@H](CC(C)C)NC(=O)[C@H](Cc1ccc(O)cc1)NC(=O)[C@H](CO)NC(=O)[C@H](CO)NC(=O)[C@@H](NC(=O)[C@H](CC(=O)O)NC(=O)[C@H](CO)NC(=O)[C@@H](NC(=O)[C@H](Cc1ccccc1)NC(=O)[C@@H](NC(=O)CNC(=O)[C@H](CCC(=O)O)NC(=O)[C@H](C)NC(=O)[C@@H](N)Cc1c[nH]cn1)[C@@H](C)O)[C@@H](C)O[C@H]1O[C@H](CO)[C@H](O)[C@H](O[C@@H]2O[C@H](CO)[C@H](O)[C@H](O[C@]3(C(=O)O)C[C@H](O)[C@@H](NC(C)=O)[C@H]([C@H](O)[C@H](O)CO)O3)[C@H]2O)[C@H]1NC(C)=O)C(C)C)C(=O)N[C@@H](C)C(=O)N[C@@H](Cc1c[nH]c2ccccc12)C(=O)N[C@@H](CC(C)C)C(=O)N[C@H](C(=O)N[C@@H](CCCCN)C(=O)NCC(=O)N[C@@H](CCCNC(=N)N)C(N)=O)C(C)C` [GLP-1 ST] here?
**A.** 22.7 min

**Q.** And the “detectability in circulation after injection (in words)” value [1]?
**A.** readily detectable in circulation even after 60 min

**Q.** Which results are given for `CC[C@H](C)[C@H](NC(=O)[C@H](Cc1ccccc1)NC(=O)[C@H](CCC(=O)O)NC(=O)[C@H](CCCCN)NC(=O)[C@H](C)NC(=O)[C@H](C)NC(=O)[C@H](CCC(N)=O)NC(=O)CNC(=O)[C@H](CCC(=O)O)NC(=O)[C@H](CC(C)C)NC(=O)[C@H](Cc1ccc(O)cc1)NC(=O)[C@H](CO)NC(=O)[C@H](CO)NC(=O)[C@@H](NC(=O)[C@H](CC(=O)O)NC(=O)[C@H](CO)NC(=O)[C@@H](NC(=O)[C@H](Cc1ccccc1)NC(=O)[C@@H](NC(=O)CNC(=O)[C@H](CCC(=O)O)NC(=O)[C@H](C)NC(=O)[C@@H](N)Cc1c[nH]cn1)[C@@H](C)O)[C@@H](C)O)C(C)C)C(=O)N[C@@H](C)C(=O)N[C@@H](Cc1c[nH]c2ccccc12)C(=O)N[C@@H](CC(C)C)C(=O)N[C@H](C(=O)N[C@@H](CCCCN)C(=O)NCC(=O)N[C@@H](CCCNC(=N)N)C(N)=O)C(C)C` [GLP-1, glucagon-like peptide 1, reference compound]?
**A.** half-life t1/2 in circulation [1]: 2.7 min; detectability in circulation after injection (in words) [1]: undetectable after the 15 min timepoint; half-life in circulation, literature [2]: ~ 2 min

**Q.** With `CC(=O)N[C@H]1[C@@H](OC[C@H](NC(=O)[C@H](Cc2ccccc2)NC(=O)[C@H](CO)NC(=O)[C@H](CCCNC(=N)N)NC(=O)[C@H](Cc2c[nH]cn2)NC(=O)[C@H](CC(N)=O)NC(=O)CNC(=O)[C@@H](NC(=O)[C@H](C)NC(=O)[C@H](Cc2c[nH]cn2)NC(=O)[C@@H]2CCCN2C(=O)CNC(=O)[C@H](CC(C)C)NC(=O)[C@H](CC(C)C)NC(=O)[C@H](Cc2ccc(O)cc2)NC(=O)CNC(=O)[C@H](C)NC(=O)[C@H](CO)NC(=O)[C@H](CC(N)=O)NC(=O)[C@H](CC(C)C)NC(=O)[C@@H](NC(=O)[C@H](Cc2c[nH]c3ccccc23)NC(=O)CN)[C@@H](C)O)C(C)C)C(=O)N[C@@H](CC(=O)O)C(=O)N[C@@H](CCCCN)C(=O)N[C@@H](CC(N)=O)C(=O)NCC(=O)N[C@@H](CC(C)C)C(=O)N[C@H](C(=O)N[C@@H](CO)C(=O)O)[C@@H](C)O)O[C@H](CO)[C@H](O)[C@@H]1O[C@@H]1O[C@H](CO)[C@H](O)[C@H](O[C@]2(C(=O)O)C[C@H](O)[C@@H](NC(C)=O)[C@H]([C@H](O)[C@H](O)CO)O2)[C@H]1O` [Galanin ST] as the compound, how does the “full-length peptide after incubation with NEP (in words)” value (neprilysin (NEP) [3]) read?
**A.** readily detectable after 24 h

**Q.** For `CC[C@H](C)[C@H](NC(=O)[C@H](CO)NC(=O)[C@H](CC(N)=O)NC(=O)[C@H](CC(C)C)NC(=O)[C@H](Cc1ccc(O)cc1)NC(=O)[C@H](CCCCN)NC(=O)[C@H](CCCCN)NC(=O)[C@@H](NC(=O)[C@H](C)NC(=O)[C@H](CCSC)NC(=O)[C@H](CCC(N)=O)NC(=O)[C@H](CCCCN)NC(=O)[C@H](CCCNC(=N)N)NC(=O)[C@H](CC(C)C)NC(=O)[C@H](CCCNC(=N)N)NC(=O)[C@@H](NC(=O)[C@H](Cc1ccc(O)cc1)NC(=O)[C@H](CC(N)=O)NC(=O)[C@H](CC(=O)O)NC(=O)[C@@H](NC(=O)[C@H](Cc1ccccc1)NC(=O)[C@@H](NC(=O)[C@H](C)NC(=O)[C@H](CC(=O)O)NC(=O)[C@H](CO)NC(=O)[C@@H](N)Cc1c[nH]cn1)C(C)C)[C@@H](C)O[C@H]1O[C@H](CO)[C@H](O)[C@H](O)[C@H]1NC(C)=O)[C@@H](C)O)C(C)C)C(=O)N[C@@H](CC(C)C)C(=O)N[C@@H](CC(N)=O)C(N)=O` [VIP Tn], which “% receptor activation at 1µM agonist” value (VIP receptor 2 (VPAC2); replicate 1) is on record?
**A.** 70.4%

**Q.** What about the “% receptor activation at 1µM agonist” value (VIP receptor 2 (VPAC2); replicate 2) of the same compound?
**A.** 67.4%

**Q.** And the “% receptor activation at 1µM agonist” value (VIP receptor 2 (VPAC2); replicate 3)?
**A.** 67.0%

**Q.** What about the “% receptor activation at 1µM agonist” value (VIP receptor 2 (VPAC2); replicate 4) of the same compound?
**A.** 57.3%

**Q.** And the “% receptor activation at 1µM agonist” value (VIP receptor 2 (VPAC2); replicate 5)?
**A.** 63.7%

**Q.** And the “% receptor activation at 1µM agonist” value (VIP receptor 2 (VPAC2); replicate 6)?
**A.** 60.1%

**Q.** What about the EC50 (VIP receptor 2 (VPAC2); [7]) of the same compound?
**A.** 421 nM

**Q.** And the EC50 (VIP receptor 2 (VPAC2); [8])?
**A.** 656 nM

**Q.** What about the EC50 (VIP receptor 2 (VPAC2); [9]) of the same compound?
**A.** 577 nM

**Q.** And the “Efficacy raw data for Glucagon-receptors, VPAC2 + VIP” value (from here on “Efficacy raw data … VPAC2 + VIP”) (VIP receptor 2 (VPAC2); replicate 1)?
**A.** 74.75

**Q.** What about the “Efficacy raw data … VPAC2 + VIP” value (VIP receptor 2 (VPAC2); replicate 2) of the same compound?
**A.** 186

**Q.** What about the “Efficacy raw data … VPAC2 + VIP” value (VIP receptor 2 (VPAC2); replicate 3) of the same compound?
**A.** 78.02

**Q.** And the “% receptor activation at 1µM agonist” value (VIP receptor 1 (VPAC1); VPAC1 + VIP, 1µM agonist, Suppl. fig 5a source data, replicate 4)?
**A.** 82.0%

**Q.** And the EC50 (VIP receptor 1 (VPAC1); [7])?
**A.** 42.6 nM

**Q.** What about the EC50 (VIP receptor 1 (VPAC1); [8]) of the same compound?
**A.** 207 nM

**Q.** And the EC50 (VIP receptor 1 (VPAC1); [9])?
**A.** 101 nM

**Q.** What about the “Efficacy raw data for Glucagon-receptors, VPAC1 + VIP” value (“Efficacy raw data … VPAC1 + VIP” below) (VIP receptor 1 (VPAC1); replicate 1) of the same compound?
**A.** 102

**Q.** And the “Efficacy raw data … VPAC1 + VIP” value (VIP receptor 1 (VPAC1); replicate 2)?
**A.** 111.1

**Q.** What about the “Efficacy raw data … VPAC1 + VIP” value (VIP receptor 1 (VPAC1); replicate 3) of the same compound?
**A.** 105.8

**Q.** Which not cleaved (neprilysin (NEP) [4]) does the source give for “GWTLNSAGYLLGPHAVGNHRSFSDKNGLTS [Galanin T]” here?
**A.** −: not susceptible to degradation

**Q.** For HAEGTFTSDVSSYLEGQAAKEFIAWLVKGR, which fragment found [5] is on record?
**A.** 9–36 amide, major

**Q.** What about the not cleaved [6] of the same compound?
**A.** −: not susceptible to degradation

**Q.** What about the not cleaved (neprilysin (NEP) [4]) of the same compound?
**A.** −: not susceptible to degradation

**Q.** With HSDAVFTDNYTRLRKQMAVKKYLNSILN as the compound, how does the not cleaved (neprilysin (NEP) [4]) read?
**A.** −: not susceptible to degradation

**Q.** With HSDGTFTSELSRLREGARLQRLLQGLV as the compound, how does the not cleaved (neprilysin (NEP) [4]) read?
**A.** −: not susceptible to degradation
